Test results as given in ChEMBL document CHEMBL2074026, “Novel experimental parameters to quantify the modulation of absorptive and secretory transport of compounds by P-glycoprotein in cell culture models of intestinal epithelium” (Pharm Res, 2003).
One block for each molecule: values may come before it.

Legend:
Format in all cases: functional, cell-based
[1] = target: T1, ATP-dependent translocase ABCB1 (Homo sapiens, UniProt P08183); assay: TP_TRANSPORTER: transepithelial transport of Methylprednisolone at a concentration of 20 uM in MDR1-expressing MDCK cells; conditions: dog
T1 sequence (P08183 whole entry): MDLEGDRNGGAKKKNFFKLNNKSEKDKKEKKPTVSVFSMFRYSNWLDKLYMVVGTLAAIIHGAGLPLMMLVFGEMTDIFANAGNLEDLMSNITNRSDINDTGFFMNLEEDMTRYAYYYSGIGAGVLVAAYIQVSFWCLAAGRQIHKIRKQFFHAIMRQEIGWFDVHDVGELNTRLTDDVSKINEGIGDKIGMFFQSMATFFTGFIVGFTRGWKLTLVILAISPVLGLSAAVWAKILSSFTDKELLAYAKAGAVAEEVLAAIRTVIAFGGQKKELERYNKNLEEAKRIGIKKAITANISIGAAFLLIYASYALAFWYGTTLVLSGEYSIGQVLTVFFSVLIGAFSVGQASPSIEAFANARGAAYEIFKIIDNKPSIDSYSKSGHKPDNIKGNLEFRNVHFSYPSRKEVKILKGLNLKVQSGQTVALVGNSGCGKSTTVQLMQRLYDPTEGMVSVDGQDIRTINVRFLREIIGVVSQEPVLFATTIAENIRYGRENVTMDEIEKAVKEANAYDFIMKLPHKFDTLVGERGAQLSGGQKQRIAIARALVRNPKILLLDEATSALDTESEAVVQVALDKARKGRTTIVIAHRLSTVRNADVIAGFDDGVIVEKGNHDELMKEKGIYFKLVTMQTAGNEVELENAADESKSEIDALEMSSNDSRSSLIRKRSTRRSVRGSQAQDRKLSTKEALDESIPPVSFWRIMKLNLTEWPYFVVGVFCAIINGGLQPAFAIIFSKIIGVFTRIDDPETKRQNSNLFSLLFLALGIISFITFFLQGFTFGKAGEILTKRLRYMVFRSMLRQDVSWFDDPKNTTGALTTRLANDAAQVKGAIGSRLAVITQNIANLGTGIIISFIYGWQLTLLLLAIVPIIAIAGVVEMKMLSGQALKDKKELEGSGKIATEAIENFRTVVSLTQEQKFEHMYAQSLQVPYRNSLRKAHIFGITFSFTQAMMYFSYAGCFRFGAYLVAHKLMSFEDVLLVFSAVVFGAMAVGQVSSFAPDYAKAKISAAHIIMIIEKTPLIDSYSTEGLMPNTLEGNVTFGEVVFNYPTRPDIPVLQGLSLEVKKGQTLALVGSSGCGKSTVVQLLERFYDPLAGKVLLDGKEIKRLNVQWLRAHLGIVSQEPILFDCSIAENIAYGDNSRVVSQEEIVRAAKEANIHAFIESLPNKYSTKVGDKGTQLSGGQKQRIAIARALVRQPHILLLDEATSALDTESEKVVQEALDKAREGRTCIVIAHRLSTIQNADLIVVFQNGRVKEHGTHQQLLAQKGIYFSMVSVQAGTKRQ

[2] = target: T1, ATP-dependent translocase ABCB1; assay: TP_TRANSPORTER: transepithelial transport of Methylprednisolone at a concentration of 20 uM in Caco-2 cells; conditions: caco-2, 20 µM
[3] = target: T1, ATP-dependent translocase ABCB1; assay: TP_TRANSPORTER: transepithelial transport of Colchicine at a concentration of 25 uM in MDR1-expressing MDCK cells; conditions: dog
[4] = target: T1, ATP-dependent translocase ABCB1; assay: TP_TRANSPORTER: transepithelial transport of Colchicine at a concentration of 25 uM in Caco-2 cells; conditions: caco-2, 25 µM
[5] = target: T1, ATP-dependent translocase ABCB1; assay: TP_TRANSPORTER: transepithelial transport of Rhodamine at a concentration of 10 uM in MDR1-expressing MDCK cells; conditions: dog
[6] = target: T1, ATP-dependent translocase ABCB1; assay: TP_TRANSPORTER: transepithelial transport of Rhodamine at a concentration of 10 uM in Caco-2 cells
[7] = target: T1, ATP-dependent translocase ABCB1; assay: TP_TRANSPORTER: transepithelial transport of Digoxin at a concentration of 10 uM in MDR1-expressing MDCK cells; conditions: dog
[8] = target: T1, ATP-dependent translocase ABCB1; assay: TP_TRANSPORTER: transepithelial transport of Digoxin at a concentration of 10 uM in Caco-2 cells
[9] = target: T1, ATP-dependent translocase ABCB1; assay: TP_TRANSPORTER: transepithelial transport of Ranitidine at a concentration of 100 uM in MDR1-expressing MDCK cells; conditions: dog
[10] = target: T1, ATP-dependent translocase ABCB1; assay: TP_TRANSPORTER: transepithelial transport of Ranitidine at a concentration of 100 uM in Caco-2 cells; conditions: caco-2, 100 µM
[11] = target: T1, ATP-dependent translocase ABCB1; assay: TP_TRANSPORTER: transepithelial transport of Saquinavir at a concentration of 20 uM in MDR1-expressing MDCK cells; conditions: dog
[12] = target: T1, ATP-dependent translocase ABCB1; assay: TP_TRANSPORTER: transepithelial transport of Saquinavir at a concentration of 20 uM in Caco-2 cells; conditions: caco-2, 20 µM
[13] = target: T1, ATP-dependent translocase ABCB1; assay: TP_TRANSPORTER: transepithelial transport of Prednisolone at a concentration of 20 uM in MDR1-expressing MDCK cells; conditions: dog
[14] = target: T1, ATP-dependent translocase ABCB1; assay: TP_TRANSPORTER: transepithelial transport of Vinblastine at a concentration of 0.1 uM in MDR1-expressing MDCK cells; conditions: dog
[15] = target: T1, ATP-dependent translocase ABCB1; assay: TP_TRANSPORTER: transepithelial transport in the presence of Vinblastine at 0.1 uM in Caco-2 cells
[16] = target: T1, ATP-dependent translocase ABCB1; assay: TP_TRANSPORTER: transepithelial transport of Acebutolol at a concentration of 20 uM in MDR1-expressing MDCK cells; conditions: dog
[17] = target: T1, ATP-dependent translocase ABCB1; assay: TP_TRANSPORTER: transepithelial transport of Acebutolol at a concentration of 20 uM in Caco-2 cells; conditions: caco-2, 20 µM
[18] = target: T1, ATP-dependent translocase ABCB1; assay: TP_TRANSPORTER: transepithelial transport of Taxol at a concentration of 10 uM in MDR1-expressing MDCK cells; conditions: dog
[19] = target: T1, ATP-dependent translocase ABCB1; assay: TP_TRANSPORTER: transepithelial transport of Taxol at a concentration of 10 uM in Caco-2 cells
[20] = target: T1, ATP-dependent translocase ABCB1; assay: TP_TRANSPORTER: transepithelial transport of Doxorubicin at a concentration of 10 uM in MDR1-expressing MDCK cells; conditions: dog
[21] = target: T1, ATP-dependent translocase ABCB1; assay: TP_TRANSPORTER: transepithelial transport of Doxorubicin at a concentration of 10 uM in Caco-2 cells

SMILES: COc1cc2c(c(OC)c1OC)-c1ccc(OC)c(=O)cc1[C@@H](NC(C)=O)CC2 [COLCHICINE]
Activity [3]: substrate [+]
Activity [4]: substrate [+]

SMILES: CCN(CC)c1ccc2c(-c3ccccc3C(=O)O)c3ccc(=[N+](CC)CC)cc-3oc2c1.[Cl-] [RHODAMINE]
Activity [5]: substrate [+]
Activity [6]: substrate [+]

SMILES: CNC(=C[N+](=O)[O-])NCCSCc1ccc(CN(C)C)o1 [RANITIDINE]
Activity [9]: substrate [+]
Activity [10]: substrate [+]

SMILES: CC(C)(C)NC(=O)[C@@H]1C[C@@H]2CCCC[C@@H]2CN1C[C@@H](O)[C@H](Cc1ccccc1)NC(=O)[C@H](CC(N)=O)NC(=O)c1ccc2ccccc2n1
Activity [11]: substrate [+]
Activity [12]: substrate [+]

SMILES: CCCC(=O)Nc1ccc(OCC(O)CNC(C)C)c(C(C)=O)c1 (stereo unspecified) [ACEBUTOLOL]
Activity [16]: substrate [+]
Activity [17]: substrate [+]

SMILES: CC(=O)O[C@H]1C(=O)[C@@]2(C)[C@H]([C@H](OC(=O)c3ccccc3)[C@]3(O)C[C@H](OC(=O)[C@H](O)[C@@H](NC(=O)c4ccccc4)c4ccccc4)C(C)=C1C3(C)C)[C@]1(OC(C)=O)CO[C@@H]1C[C@@H]2O [PACLITAXEL]
Activity [18]: substrate [+]
Activity [19]: substrate [+]

Further lines, results first:

Activity [1]: substrate [+]
Activity [2]: substrate [+]
SMILES: C[C@H]1C[C@@H]2[C@H]([C@@H](O)C[C@@]3(C)[C@H]2CC[C@]3(O)C(=O)CO)[C@@]2(C)C=CC(=O)C=C12 [METHYLPREDNISOLONE]

Activity [7]: substrate [+]
Activity [8]: substrate [+]
SMILES: C[C@H]1O[C@@H](O[C@H]2[C@@H](O)C[C@H](O[C@H]3[C@@H](O)C[C@H](O[C@H]4CC[C@@]5(C)[C@H](CC[C@@H]6[C@@H]5C[C@@H](O)[C@]5(C)[C@@H](C7=CC(=O)OC7)CC[C@]65O)C4)O[C@@H]3C)O[C@@H]2C)C[C@H](O)[C@@H]1O [DIGOXIN]

Activity [13]: substrate [+]
SMILES: C[C@]12C=CC(=O)C=C1CC[C@@H]1[C@@H]2[C@@H](O)C[C@@]2(C)[C@H]1CC[C@]2(O)C(=O)CO [PREDNISOLONE]

Activity [14]: substrate [+]
Activity [15]: substrate [+]
SMILES: CC[C@]1(O)C[C@@H]2CN(CCc3c([nH]c4ccccc34)[C@@](C(=O)OC)(c3cc4c(cc3OC)N(C)[C@H]3[C@@](O)(C(=O)OC)[C@H](OC(C)=O)[C@]5(CC)C=CCN6CC[C@]43[C@@H]65)C2)C1 [VINBLASTINE]

Activity [20]: substrate [+]
Activity [21]: substrate [+]
SMILES: COc1cccc2c1C(=O)c1c(O)c3c(c(O)c1C2=O)C[C@@](O)(C(=O)CO)C[C@@H]3O[C@H]1C[C@H](N)[C@H](O)[C@H](C)O1 [DOXORUBICIN]
